This passage reports EC50 results from US20240199572A1, “COMPOUNDS, COMPOSITIONS, AND METHODS FOR TREATING TYPE 2 DIABETES AND DEMENTIA” (THE BOARD OF TRUSTEES OF THE UNIVERSITY OF ILLINOIS, priority 2021, published 2024).

As usually defined, the EC50 is the concentration that produces a half-maximal response. A high value points to a less potent agent.

Some results are limits rather than exact numbers.

The first experiment concerns ABCA1. Put plainly: ABCA1 firefly reporter assay in CCF-001 cells. Conditions: ABCA1 firefly reporter assay in CCF-001 cells (Table 8). The experiment is classed as cell-based.
Consider `CCOc1ccc(N(C)S(=O)(=O)c2cc(Cl)sc2C(=O)Nc2cc(Cl)ccc2F)cc1OC` [GR1-001, 5-Chloro-N-(5-chloro-2-fluorophenyl)-3-(N-(4-ethoxy-3-methoxyphenyl)-N-methylsulfamoyl)thiophene-2-carboxamide], for which the concentration giving a half-maximal response (EC50) stood at 0.82 µM. Still for that read-out and setting: with `CCOc1ccc(N(C)S(=O)(=O)c2cc(Cl)sc2C(=O)Nc2cc(C(F)(F)F)cc(C(F)(F)F)c2)cc1OC` [GR1-002, N-(3,5-bis (trifluoromethyl)phenyl)-5-chloro-3-(N-(4-ethoxy-3-methoxyphenyl)-N-methylsulfamoyl)thiophene-2-carboxamide] the figure was 2.02 µM. The compound `CCOC(=O)c1cccc(-c2nnc(-c3sc(Cl)cc3S(=O)(=O)N(C)c3ccc(OCC)c(OC)c3)o2)c1` [GR1-015, Ethyl 3-(5-(5-chloro-3-(N-(4-ethoxy-3-methoxyphenyl)-N-methylsulfamoyl)thiophen-2-yl)-1,3,4-oxadiazol-2-yl)benzoate] gave an EC50 of 3.08 µM.

On to `C#CCOc1ccc(C(=O)c2ccc(OC(=O)c3cc(Cl)cc(NC(=O)c4sc(Cl)cc4S(=O)(=O)N(C)c4ccc(OCC)c(OC)c4)c3)cc2)cc1` [GR1-019, 4-(4-(Prop-2-yn-1-yloxy)benzoyl)phenyl 3-chloro-5-(5-chloro-3-(N-(4-ethoxy-3-methoxyphenyl)-N-methylsulfamoyl)thiophene-2-carboxamido)benzoate], for which the EC50 was found to be 0.066 µM. In turn, `CCOc1ccc(N(C)S(=O)(=O)c2cc(Cl)sc2C(=O)Nc2cccc(Cl)c2)cc1OC` [GR1-046, 5-Chloro-N-(3-chlorophenyl)-3-(N-(4-ethoxy-3-methoxyphenyl)-N-methylsulfamoyl)thiophene-2-carboxamide] yielded a concentration for a half-maximal effect (EC50) of 2.7 µM. This EC50 lies about 41-fold higher than the previous one.

As for `CCOc1ccc(N(C)S(=O)(=O)c2cc(Cl)sc2C(=O)Nc2cccc(F)c2)cc1OC` [GR1-047, 5-Chloro-3-(N-(4-ethoxy-3-methoxyphenyl)-N-methylsulfamoyl)-N-(3-fluorophenyl)thiophene-2-carboxamide], the EC50 is 2.53 µM.

With `CCOc1ccc(N(C)S(=O)(=O)c2cc(Cl)sc2C(=O)Nc2cccc(Br)c2)cc1OC` [GR1-048, N-(3-bromophenyl)-5-chloro-3-(N-(4-ethoxy-3-methoxyphenyl)-N-methylsulfamoyl)thiophene-2-carboxamide], the EC50 is 1.24 µM. `CCOc1ccc(N(C)S(=O)(=O)c2cc(Cl)sc2C(=O)Nc2cc(Cl)cc(Cl)c2)cc1OC` [GR1-049, 5-Chloro-N-(3,5-dichlorophenyl)-3-(N-(4-ethoxy-3-methoxyphenyl)-N-methylsulfamoyl)thiophene-2-carboxamide] yielded a concentration for a half-maximal effect (EC50) of 0.79 µM. Still for that read-out and setting: with `CCOc1ccc(N(C)S(=O)(=O)c2cc(Cl)sc2C(=O)Nc2cc(F)cc(Cl)c2)cc1OC` [GR1-050, 5-Chloro-N-(3-chloro-5-fluorophenyl)-3-(N-(4-ethoxy-3-methoxyphenyl)-N-methylsulfamoyl)thiophene-2-carboxamide] the figure was 1.09 µM; with `CCOc1ccc(N(C)S(=O)(=O)c2cc(Cl)sc2C(=O)Nc2cc(Cl)cc(Br)c2)cc1OC` [GR1-051, N-(3-bromo-5-chlorophenyl)-5-chloro-3-(N-(4-ethoxy-3-methoxyphenyl)-N-methylsulfamoyl)thiophene-2-carboxamide], 3.6 µM; with `CCOc1ccc(N(C)S(=O)(=O)c2cc(Cl)sc2C(=O)Nc2cc(Cl)cc(C(F)(F)F)c2)cc1OC` [GR1-052, 5-Chloro-N-(3-chloro-5-(trifluoromethyl)phenyl)-3-(N-(4-ethoxy-3-methoxyphenyl)-N-methylsulfamoyl)thiophene-2-carboxamide], 1.55 µM. The compound `CCOC(=O)c1cc(Br)cc(NC(=O)c2sc(Cl)cc2S(=O)(=O)N(C)c2ccc(OCC)c(OC)c2)c1` [GR1-054, Ethyl 3-bromo-5-(5-chloro-3-(N-(4-ethoxy-3-methoxyphenyl)-N-methylsulfamoyl)thiophene-2-carboxamido)benzoate] yielded an EC50 of 0.564 µM.

`CCOc1ccc(N(C)S(=O)(=O)c2cc(Cl)sc2C(=O)Nc2cc(Cl)cc(C(=O)Oc3ccccc3)c2)cc1OC` [GR1-059, Phenyl 3-chloro-5-(5-chloro-3-(N-(4-ethoxy-3-methoxyphenyl)-N-methylsulfamoyl)thiophene-2-carboxamido)benzoate]: the EC50 stood at 0.135 µM. The same measure, in the same setting: under `CCOc1ccc(N(C)S(=O)(=O)c2cc(Cl)sc2C(=O)Nc2cc(Cl)cc([N+](=O)[O-])c2)cc1OC` [GR1-064, 5-Chloro-N-(3-chloro-5-nitrophenyl)-3-(N-(4-ethoxy-3-methoxyphenyl)-N-methylsulfamoyl)thiophene-2-carboxamide] stands 0.578 µM. Same read-out and setting: under `CCOc1ccc(N(C)S(=O)(=O)c2cc(Cl)sc2C(=O)Nc2cc(Cl)cc(C(=O)Oc3ccc(C(C)=O)cc3)c2)cc1OC` [GR1-067, 4-Acetylphenyl 3-chloro-5-(5-chloro-3-(N-(4-ethoxy-3-methoxyphenyl)-N-methylsulfamoyl)thiophene-2-carboxamido)benzoate] stands 0.011 µM; under `CCOc1ccc(N(C)S(=O)(=O)c2cc(Cl)sc2C(=O)Nc2cc(Cl)cc(C(=O)Oc3ccc(C(=O)c4ccccc4)cc3)c2)cc1OC` [GR1-068, 4-Benzoylphenyl 3-chloro-5-(5-chloro-3-(N-(4-ethoxy-3-methoxyphenyl)-N-methylsulfamoyl)thiophene-2-carboxamido)benzoate], 0.148 µM. As to `CCOc1ccc(N(C)S(=O)(=O)c2cc(Cl)sc2C(=O)Nc2cc(Cl)cc(C(=O)Oc3ccc(C(=O)c4ccc(O)cc4)cc3)c2)cc1OC` [GR1-069, 4-(4-Hydroxybenzoyl)phenyl 3-chloro-5-(5-chloro-3-(N-(4-ethoxy-3-methoxyphenyl)-N-methylsulfamoyl)thiophene-2-carboxamido)benzoate], the EC50 was 0.211 µM. Consider `O=C(O)Cc1cccc(OCCCN(Cc2cccc(C(F)(F)F)c2Cl)CC(c2ccccc2)c2ccccc2)c1` [GW3965, reference compound], for which the midpoint of the response, the EC50, lay at 0.269 µM.

For a further experiment, the system named is ABCA1 mRNA. The experiment in a line: ABCA1 mRNA - HepG2 (qRT-PCR). The experiment is classed as cell-based, human. To be noted: Homo sapiens; ABCA1 mRNA-HepG2 assay (Table 7). From the text: qRT-PCR. For cell samples, treated cells were lysed with RLT plus lysis buffer (Qiagen). RNA was isolated with Qiagen RNEASY® Plus columns per manufacturer instructions, then reverse-transcribed to cDNA using […]® III Reverse Transcriptase (200 U/μL, Invitrogen) per supplier protocol. qPCR experiments were either performed with TAQMAN® gene expression master mix (Invitrogen) on a StepOne™ qPCR instrument or with […]® SYBR® Green SuperMix (Quanta Biosciences) on CFX Connect™ Real-Time PCR Detection System (BioRad), with fold-change quantified by ΔΔCt. For animal samples, 100 mg tissue was homogenized in 1 mL acid-guanidinium-phenol based reagent sold under the tradename TRIZOL® (Ambion), mixed vigorously in chloroform, and separated by centrifugation. Aqueous layer containing RNA was added to Qiagen RNEASY® Plus column; remaining stops were as described above for cell lysates.
Background: In qPCR the cycle at which signal appears reflects the starting amount.
For the compound `CCOc1ccc(N(C)S(=O)(=O)c2ccsc2C(=O)Nc2cccc(C(=O)CC)c2)cc1` [CL1-62, 3-(N-(4-ethoxyphenyl)-N-methylsulfamoyl)-N-(3-propionylphenyl)thiophene-2-carboxamide], the half-maximal effective concentration (EC50) is over 5 µM.

`CCOc1ccc(N(C)S(=O)(=O)c2ccsc2C(=O)Nc2cccc(C(=O)OC(C)C)c2)cc1` [CL1-88, Isopropyl 3-(3-(N-(4-ethoxyphenyl)-N-methylsulfamoyl)thiophene-2-carboxamido) benzoate]: the midpoint of the response, the EC50, lay at 4.5 µM. Same read-out and setting: with `CCOC(=O)c1cccc(NC(=O)c2sccc2S(=O)(=O)N(C)c2ccc(OCC)c(OCC)c2)c1` [CL2-43, Ethyl 3-(3-(N-(3,4-diethoxyphenyl)-N-methylsulfamoyl)thiophene-2-carboxamido)benzoate] the figure was 2.8 µM. `CCOc1ccc(N(C)S(=O)(=O)c2cc(Cl)sc2C(=O)Nc2cccc(C(=O)CC)c2)cc1OCC` [CL2-64, 5-Chloro-3-(N-(3,4-diethoxyphenyl)-N-methylsulfamoyl)-N-(3-propionylphenyl)thiophene-2-carboxamide] showed an EC50 of over 5 µM.

On to `CCOC(=O)c1cccc(NC(=O)c2sc(Cl)cc2S(=O)(=O)N(C)c2ccc(N3CCNCC3)cc2)c1` [CL2-200, Ethyl 3-(5-chloro-3-(N-methyl-N-(4-(piperazin-1-yl)phenyl)sulfamoyl)thiophene-2-carboxamido)benzoate], for which it took 3.7 µM to reach a half-maximal effect (EC50).
